Measured values taken from PMC4030628 (Cancer research, 2013).

Target: STAT3 (Homo sapiens, UniProt P40763)
Assay: fluorescence polarization competition with 5-FAM-GpYLPQTV phosphopeptide
Type: binding

STAT3, sequence (P40763 2-770): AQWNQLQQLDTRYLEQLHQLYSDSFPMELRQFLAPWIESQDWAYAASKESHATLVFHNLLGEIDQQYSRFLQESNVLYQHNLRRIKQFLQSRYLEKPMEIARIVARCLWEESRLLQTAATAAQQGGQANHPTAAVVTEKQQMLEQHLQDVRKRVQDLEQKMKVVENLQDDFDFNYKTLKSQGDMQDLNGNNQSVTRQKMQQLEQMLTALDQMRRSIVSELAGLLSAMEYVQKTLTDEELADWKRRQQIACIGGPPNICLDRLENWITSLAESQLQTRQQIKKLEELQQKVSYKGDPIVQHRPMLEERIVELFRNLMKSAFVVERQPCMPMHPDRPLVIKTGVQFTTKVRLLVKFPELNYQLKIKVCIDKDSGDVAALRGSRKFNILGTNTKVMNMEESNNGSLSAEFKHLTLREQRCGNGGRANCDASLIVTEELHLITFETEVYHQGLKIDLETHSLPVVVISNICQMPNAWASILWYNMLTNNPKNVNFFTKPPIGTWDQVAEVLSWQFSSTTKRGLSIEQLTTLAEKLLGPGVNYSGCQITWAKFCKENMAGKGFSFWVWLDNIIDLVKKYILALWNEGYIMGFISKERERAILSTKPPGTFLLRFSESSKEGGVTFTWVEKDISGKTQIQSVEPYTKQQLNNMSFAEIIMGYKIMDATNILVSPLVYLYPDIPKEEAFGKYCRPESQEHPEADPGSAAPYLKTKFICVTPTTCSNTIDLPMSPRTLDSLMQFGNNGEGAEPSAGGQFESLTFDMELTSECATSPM

Question: For S3I-1757, which IC50 is on record?
Answer: 13.5 ± 0.5 µM
